In PMC11995724, “Antibiotic target discovery by integrated phenotypic and activity-based profiling of electrophilic fragments” (Cell chemical biology, 2025) one finds viability data, which are given here for 48 molecules.

The nature of this data set: in vitro. The conditions noted are these: human, hek293t cells.
Description: Mammalian cytotoxicity measurement was performed using Cell Titer-Glo 2.0 Cell Viability Assay (Promega, G9243) according to the manufacturer protocol. In brief, mammalian cells were seeded into 384-well white plates (Greiner, 781080) and incubated at 37°C for one day. Compounds from the Cys-Library were dispensed into the assay plate using epMotion 96. The plates were then incubated at 37°C for two days. An equal volume of Cell Titer-Glo 2.0 reagent was added into each well of the assay plate using epMotion 96 and incubated at 22°C for 10 min, followed by luminescence measurement using a Cytation 5 plate reader (BioTek).
In general, viability refers to a read-out of living cells in per cent, often relative to untreated cells. Take `CCCn1c(C)cc(C=C(C#N)C(=O)Nc2cccc(F)c2)c1C` [8-L19, 2-cyano-3-(2,5-dimethyl-1-propyl-1H-pyrrol-3-yl)-N-(3-fluorophenyl)prop-2-enamide]: the viability at 48 h, 25 µM is 103%.

`O=C(CCl)N1CCOCC1c1noc(-c2ccccc2)n1` (stereo not drawn) [5-E10, 2-chloro-1-[3-(5-phenyl-1,2,4-oxadiazol-3-yl)morpholin-4-yl]ethan-1-one]: the viability at 48 h, 25 µM was determined as 1.07%.

As to `C=CC(=O)NCc1nc(-c2ccccc2)oc1C` [3-C05, N-[(5-methyl-2-phenyl-1,3-oxazol-4-yl)methyl]prop-2-enamide], the viability at 48 h, 25 µM came out at 50.4%.

In the case of `N#CC(=Cc1cccc2nccn12)C(=O)Nc1ccccc1` [9-M05, 2-cyano-3-{imidazo[1,2-a]pyridin-5-yl}-N-phenylprop-2-enamide], the viability at 48 h, 25 µM is 125%.

Regarding `C=CC(=O)Nc1cc2c(cc1Sc1ccccc1)OCCO2` [1-M13, N-[7-(phenylsulfanyl)-2,3-dihydro-1,4-benzodioxin-6-yl]prop-2-enamide], the viability at 48 h, 25 µM worked out at 82.4%.

On to `C=CC(=O)NC(c1noc(O)n1)C(C)(C)C` (stereo not drawn) [2-C14, N-[1-(5-hydroxy-1,2,4-oxadiazol-3-yl)-2,2-dimethylpropyl]prop-2-enamide], for which the viability at 48 h, 25 µM was determined as 96.4%.

As for `N#CC(=Cc1ccc(F)cc1)C(=O)Nc1ccc(C(=O)O)cc1` [8-L07, 4-[2-cyano-3-(4-fluorophenyl)prop-2-enamido]benzoic acid], the viability at 48 h, 25 µM was 119%.

Consider `CCCCNC(=O)C(C#N)=Cc1ccsc1` [9-B13, N-butyl-2-cyano-3-(thiophen-3-yl)prop-2-enamide], for which the viability at 48 h, 25 µM is 102%.

With `C=CC(=O)NC1CCOc2c(F)cccc21` (stereo not drawn) [1-D05, N-(8-fluoro-3,4-dihydro-2H-1-benzopyran-4-yl)prop-2-enamide], the viability at 48 h, 25 µM came to 99.1%.

Take `Cc1ccc(NC(=O)C(C#N)=Cc2ccccc2OC(F)F)c(C)c1` [9-K17, 2-cyano-3-[2-(difluoromethoxy)phenyl]-N-(2,4-dimethylphenyl)prop-2-enamide]: the viability at 48 h, 25 µM came to 94.9%.

For `CC(C)NC(=O)C(C#N)=Cc1cccc(Cl)c1` [9-A13, 3-(3-chlorophenyl)-2-cyano-N-(propan-2-yl)prop-2-enamide], the viability at 48 h, 25 µM amounted to 99.7%.

In the case of `CCn1ncc(C(=O)CCl)n1` [10-E13, 2-chloro-1-(2-ethyl-2H-1,2,3-triazol-4-yl)ethan-1-one], the viability at 48 h, 25 µM worked out at 87.2%.

As to `C=CCNC(=O)C(C#N)=Cc1ccc(-c2ccc(F)cc2)o1` [8-L20, 2-cyano-3-[5-(4-fluorophenyl)furan-2-yl]-N-(prop-2-en-1-yl)prop-2-enamide], the viability at 48 h, 25 µM is 114%.

Consider `CN1c2ccccc2C(NC(=O)CCl)CS1(=O)=O` (stereo not drawn) [7-L04, 2-chloro-N-(1-methyl-2,2-dioxo-3,4-dihydro-1H-2lambda6,1-benzothiazin-4-yl)acetamide], for which the viability at 48 h, 25 µM was 0.505%.

In the case of `O=C(CCl)Nc1oncc1-c1ccccc1` [6-I20, 2-chloro-N-(4-phenyl-1,2-oxazol-5-yl)acetamide], the viability at 48 h, 25 µM came out at 1.45%.

For `Cc1ccc(C)c(NC(=O)C(C#N)=Cc2ccc(N3CCCCC3)o2)c1` [9-D12, 2-cyano-N-(2,5-dimethylphenyl)-3-[5-(piperidin-1-yl)furan-2-yl]prop-2-enamide], the viability at 48 h, 25 µM came to 69.5%.

With `N#CC(=Cc1cccc(Cl)c1Cl)C(=O)Nc1ccc(F)cc1` [8-P22, 2-cyano-3-(2,3-dichlorophenyl)-N-(4-fluorophenyl)prop-2-enamide], the viability at 48 h, 25 µM was 92.8%.

Regarding `C=CC(=O)N1CCC(c2nc(C3CC3)no2)C1` (stereo not drawn) [2-E09, 1-[3-(3-cyclopropyl-1,2,4-oxadiazol-5-yl)pyrrolidin-1-yl]prop-2-en-1-one], the viability at 48 h, 25 µM is 70%.

Turning to `O=C(CCl)NC(c1ccc(F)c(C(F)(F)F)c1)C1CC1` (stereo not drawn) [7-B22, 2-chloro-N-{cyclopropyl[4-fluoro-3-(trifluoromethyl)phenyl]methyl}acetamide], the viability at 48 h, 25 µM stood at 0.631%.

As for `C=CC(=O)N(C)Cc1c(C)nn(C)c1Cl` [1-C15, N-[(5-chloro-1,3-dimethyl-1H-pyrazol-4-yl)methyl]-N-methylprop-2-enamide], the viability at 48 h, 25 µM worked out at 86.1%.

As for `C=CC(=O)NCC1CCN(C2CC2)CC1` [1-A07, N-[(1-cyclopropylpiperidin-4-yl)methyl]prop-2-enamide], the viability at 48 h, 25 µM was determined as 80.2%.

For the molecule `C=CC(=O)NCc1n[nH]c(=O)n1C1CC1` [3-N08, N-[(4-cyclopropyl-5-oxo-4,5-dihydro-1H-1,2,4-triazol-3-yl)methyl]prop-2-enamide], the viability at 48 h, 25 µM was determined as 80%.

In the case of `C=CC(=O)N(C)C1CS(=O)(=O)C1` [1-E03, N-(1,1-dioxo-1lambda6-thietan-3-yl)-N-methylprop-2-enamide], the viability at 48 h, 25 µM is 86.3%.

As to `C=CC(=O)N1CCC(C(=O)NCc2cc(=O)n3ccccc3n2)CC1` [3-L12, N-({4-oxo-4H-pyrido[1,2-a]pyrimidin-2-yl}methyl)-1-(prop-2-enoyl)piperidine-4-carboxamide], the viability at 48 h, 25 µM was found to be 82.7%.

Turning to `C=CC(=O)N1CCCn2cccc2C12CCOCC2` [1-A22, 1-{2',3',4',5'-tetrahydrospiro[oxane-4,1'-pyrrolo[1,2-a][1,4]diazepin]-2'-yl}prop-2-en-1-one], the viability at 48 h, 25 µM was found to be 109%.

Take `COc1cc(NC(=O)CCl)c(OC)cc1Cl` [5-C05, 2-chloro-N-(4-chloro-2,5-dimethoxyphenyl)acetamide]: the viability at 48 h, 25 µM was determined as 0.731%.

Turning to `COCc1nc(C2CCCCCN2C(=O)CCl)no1` (stereo not drawn) [5-B07, 2-chloro-1-{2-[5-(methoxymethyl)-1,2,4-oxadiazol-3-yl]azepan-1-yl}ethan-1-one], the viability at 48 h, 25 µM was 1.24%.

Take `O=C(CCl)NCc1ccc(OC(F)(F)F)cc1` [6-G08, 2-chloro-N-{[4-(trifluoromethoxy)phenyl]methyl}acetamide]: the viability at 48 h, 25 µM stood at 1.3%.

Take `CCN(CC)S(=O)(=O)c1ccc(Cl)c(NC(=O)C(C)Cl)c1` (stereo not drawn) [6-C20, 2-chloro-N-[2-chloro-5-(diethylsulfamoyl)phenyl]propanamide]: the viability at 48 h, 25 µM is 79.6%.

As for `C=CC(=O)Nc1ccc2oc(CC(C)(C)C)nc2c1` [3-K18, N-[2-(2,2-dimethylpropyl)-1,3-benzoxazol-5-yl]prop-2-enamide], the viability at 48 h, 25 µM was found to be 82.2%.

Consider `Cc1ccc(C=C(C#N)C(=O)Nc2nccs2)s1` [8-P13, 2-cyano-3-(5-methylthiophen-2-yl)-N-(1,3-thiazol-2-yl)prop-2-enamide], for which the viability at 48 h, 25 µM turned out to be 109%.

With `C=CC(=O)N1CCC(C(=O)N2CCCCCC2c2ccco2)CC1` (stereo not drawn) [2-N20, 1-{4-[2-(furan-2-yl)azepane-1-carbonyl]piperidin-1-yl}prop-2-en-1-one], the viability at 48 h, 25 µM turned out to be 80.3%.

Consider `COc1cc(C)c(C=C(C#N)C(=O)Nc2ccc(C)cc2)cc1C(C)C` [9-C04, 2-cyano-3-[4-methoxy-2-methyl-5-(propan-2-yl)phenyl]-N-(4-methylphenyl)prop-2-enamide], for which the viability at 48 h, 25 µM worked out at 127%.

As to `CC(Cl)C(=O)N1CCN(C(=O)Cc2cccc(Cl)c2)C(C)C1` (stereo not drawn) [7-E20, 2-chloro-1-{4-[2-(3-chlorophenyl)acetyl]-3-methylpiperazin-1-yl}propan-1-one], the viability at 48 h, 25 µM worked out at 65.1%.

On to `C=CC(=O)N(CC)CC(=O)N1CCc2c(cccc2NC(C)=O)C1` [3-K16, N-[2-(5-acetamido-1,2,3,4-tetrahydroisoquinolin-2-yl)-2-oxoethyl]-N-ethylprop-2-enamide], for which the viability at 48 h, 25 µM stood at 90.5%.

For the molecule `CC(Cl)C(=O)Nc1sc(-c2ccccc2)cc1C(N)=O` (stereo not drawn) [4-H13, 2-(2-chloropropanamido)-5-phenylthiophene-3-carboxamide], the viability at 48 h, 25 µM came out at 80.6%.

Regarding `CC(Cl)C(=O)NC1Cc2ccccc2N(C(=O)C(F)(F)F)C1` (stereo not drawn) [7-N19, 2-chloro-N-[1-(2,2,2-trifluoroacetyl)-1,2,3,4-tetrahydroquinolin-3-yl]propanamide], the viability at 48 h, 25 µM came out at 87.1%.

For `Cc1nn(CC(F)(F)F)c(C)c1C1COCCN1C(=O)CCl` (stereo not drawn) [5-J13, 2-chloro-1-{3-[3,5-dimethyl-1-(2,2,2-trifluoroethyl)-1H-pyrazol-4-yl]morpholin-4-yl}ethan-1-one], the viability at 48 h, 25 µM is 2.86%.

As for `CC(Cl)C(=O)N(C)C[C@@H]1C[C@H](F)CN1c1ccnc(N(C)C)n1` (stereo partly drawn) [7-K16, 2-chloro-N-{[(2S,4S)-1-[2-(dimethylamino)pyrimidin-4-yl]-4-fluoropyrrolidin-2-yl]methyl}-N-methylpropanamide], the viability at 48 h, 25 µM came out at 79.5%.

Take `C=CC(=O)NCCc1cscn1` [2-G08, N-[2-(1,3-thiazol-4-yl)ethyl]prop-2-enamide]: the viability at 48 h, 25 µM was 87.1%.

Take `O=C(CCl)NC(C1CC1)C1CC1` [6-C22, 2-chloro-N-(dicyclopropylmethyl)acetamide]: the viability at 48 h, 25 µM worked out at 66.4%.

For the molecule `C=CC(=O)NC1CCCN(C(=O)CCC(F)(F)F)C1` (stereo not drawn) [1-B03, N-[1-(4,4,4-trifluorobutanoyl)piperidin-3-yl]prop-2-enamide], the viability at 48 h, 25 µM was determined as 108%.

For `N#CC(=Cc1sc2ccccc2c1Cl)C(=O)Nc1nccs1` [9-F15, 3-(3-chloro-1-benzothiophen-2-yl)-2-cyano-N-(1,3-thiazol-2-yl)prop-2-enamide], the viability at 48 h, 25 µM amounted to 117%.

`C=CC(=O)Nc1cc(SCc2ccccc2C)ncn1` [1-F08, N-(6-{[(2-methylphenyl)methyl]sulfanyl}pyrimidin-4-yl)prop-2-enamide]: the viability at 48 h, 25 µM was 0.816%.

On to `CCC(NC(=O)CCl)c1ccc(C)cc1` (stereo not drawn) [4-K17, 2-chloro-N-[1-(4-methylphenyl)propyl]acetamide], for which the viability at 48 h, 25 µM amounted to 2.62%.

For the molecule `Cc1cccc(NC(=O)C(C#N)=Cc2ccc(F)cc2)c1` [9-E12, 2-cyano-3-(4-fluorophenyl)-N-(3-methylphenyl)prop-2-enamide], the viability at 48 h, 25 µM is 90.9%.

In the case of `O=C(CCl)NCC1CCCN(C(=O)C(F)(F)F)C1` (stereo not drawn) [7-N18, 2-chloro-N-{[1-(2,2,2-trifluoroacetyl)piperidin-3-yl]methyl}acetamide], the viability at 48 h, 25 µM turned out to be 0.898%.

For `Cc1cc(C(=O)CCl)c(C)n1CCc1ccc(F)cc1` [10-G14, 2-chloro-1-{1-[2-(4-fluorophenyl)ethyl]-2,5-dimethyl-1H-pyrrol-3-yl}ethan-1-one], the viability at 48 h, 25 µM amounted to 0.499%.
